Experimental data: patent publication US4882357A, “Novel N-(substituted-phenyl)-5-(substituted-2,5-dimethylphenoxy)-2,2-dimethylp entanamides” (Warner-Lambert Company, priority 1988, dated 1989)

Key:
HDL = assay: elevation of HDL, test drug versus gemfibrozil; assay type: in vivo, rats; settings: 50 mg/kg test drug vs 50 mg/kg gemfibrozil; 1 = as effective as gemfibrozil
Method: Additionally, the elevation of HDL is reported in the table as a ratio of the elevation of HDL effected by a dose of 50 mg/kg of the test drug divided by the elevation of HDL effected by a 50 mg/kg dose of gemfibrozil which is used as a control in each experiment. [formula] Thus, a figure of 1 means that the test drug was as effective as gemfibrozil in elevating HDL. […] The test procedure is described in U.S. Pat. No. 4,413,011.

[1] = molecular target: T1, acyl-CoA:cholesterol acyltransferase (ACAT) (Oryctolagus cuniculus, UniProt G1SFD9); assay: inhibition of esterification of cholesterol by ACAT (cholesteryl oleate formation), rabbit intestinal microsomal fraction; assay type: biochemical; settings: endogenous cholesterol, exogenous 14C-oleoyl-CoA, read-out: IC50 (concentration of test compound required to inhibit cholesteryl oleate formation to 50% of control)
T1 construct: rabbit intestinal microsomal fraction; from tissue; host or cells: rabbit intestine, microsomal fraction
T1 sequence (G1SFD9 1-524): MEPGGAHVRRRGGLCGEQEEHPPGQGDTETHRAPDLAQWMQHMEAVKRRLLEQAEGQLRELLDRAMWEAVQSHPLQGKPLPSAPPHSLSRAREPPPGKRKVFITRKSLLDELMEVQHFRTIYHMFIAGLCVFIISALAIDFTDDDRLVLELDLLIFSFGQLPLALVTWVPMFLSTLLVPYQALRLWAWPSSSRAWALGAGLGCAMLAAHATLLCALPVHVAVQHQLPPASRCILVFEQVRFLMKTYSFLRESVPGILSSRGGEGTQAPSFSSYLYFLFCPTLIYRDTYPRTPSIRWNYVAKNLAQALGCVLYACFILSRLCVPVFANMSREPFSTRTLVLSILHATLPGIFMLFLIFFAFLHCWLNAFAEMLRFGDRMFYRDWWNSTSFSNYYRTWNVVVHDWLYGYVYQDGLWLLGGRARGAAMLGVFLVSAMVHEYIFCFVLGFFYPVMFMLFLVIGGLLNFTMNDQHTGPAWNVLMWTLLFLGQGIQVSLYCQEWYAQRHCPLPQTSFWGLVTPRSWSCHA
Method: The compounds of the present invention were tested for their ability to inhibit the esterification of cholesterol by the enzyme acyl-CoA:cholesterol acyltransferase (ACAT). The data in the table below is expressed as IC50 values, i.e., the concentration of test compound required to inhibit cholesteryl oleate formation to 50% of control.
The in vitro test employed is more fully described in Field, F. J. and Salome, R. G., Biochemica et Biophysica Acta, 712, pp 557-570 (1982). The assay evaluates the ability of a test compound to inhibit the esterification of cholesterol using endogenous cholesterol of a rabbit intestinal microsomal fraction and exogenous ^14 C-oleoyl-CoA as reactants.

[2] = system: patients with elevated cholesterol levels; settings: cited from earlier work

Row | Structure (SMILES) | IC50 [1] [µM] | ratio of the elevation of HDL effected by test drug divided by the elevation of HDL effected by gemfibrozil (HDL) | effect on LDL and HDL ([2]; in words) | reduction of the rate of heart attack and sudden cardiac death ([2]; patients with elevated cholesterol levels, five years) [%]
1 | COc1ccccc1NC(=O)C(C)(C)CCCOc1cc(C)ccc1C [Example 1, 5-(2,5-dimethylphenoxy)-N-(2-methoxyphenyl)-2,2-dimethylpentanamide] | 14 | 0.31 | – | –
2 | CCOc1ccccc1NC(=O)C(C)(C)CCCOc1cc(C)ccc1C [Example 1d, 5-(2,5-dimethylphenoxy)-N-(2-ethoxyphenyl)-2,2-dimethylpentanamide] | 5 | 1.08 | – | –
3 | Cc1ccc(C)c(OCCCC(C)(C)C(=O)Nc2ccc(C)cc2OC(C)C)c1 [Example 1j, 5-(2,5-Dimethylphenoxy)-2,2-dimethyl-N-[4-methyl-2-(1-methylethoxy)phenyl]pentanamide] | 8 | 0.84 | – | –
4 | COC(=O)C(C)(C)CCCOc1ccccc1NC(=O)C(C)(C)CCCOc1cc(C)ccc1C [Example 1l, 5-[2[[5-(2,5-dimethylphenoxy)2,2-dimethyl-1-oxopentyl]amino]phenoxy]-2,2-dimethylpentanoic acid, methyl ester] | 8 | 0.4 | – | –
5 | CCCCCCOc1ccccc1NC(=O)C(C)(C)CCCOc1cc(C)ccc1C [Example 1f, 5-(2,5-dimethylphenoxy)-N[2-(hexyloxy)phenyl]-2,2-dimethylpentanamide] | 10 | 0.42 | – | –
6 | Cc1ccc(C)c(OCCCC(C)(C)C(=O)O)c1 [gemfibrozil] | – | – | both lowers LDL and elevates HDL | 34
7 | CCOC(=O)C=Cc1ccc(NC(=O)C(C)(C)CCCOc2cc(C)ccc2C)cc1 [Example 5, 3-[4-[[5-(2,5-Dimethylphenoxy)-2,2-dimethyl-1-oxopentyl]amino]phenyl]-2-propenoic acid, ethyl ester, reference compound] | 45 | 0.56 | – | –
8 | COC(=O)C(C)(C)CCCOc1cccc(NC(=O)C(C)(C)CCCOc2cc(C)ccc2C)c1 [Example 1m, 5-[3-[[5-(2,5-dimethylphenoxy)-2,2-dimethyl-1-oxopentyl]amino]phenoxy]-2,2-dimethylpentanoic acid, methyl ester] | 21 | 1.0 | – | –

Continued, in another order:

Row | IC50 [1] [µM] | Structure (SMILES) | ratio of the elevation of HDL effected by test drug divided by the elevation of HDL effected by gemfibrozil (HDL) | effect on LDL and HDL ([2]; in words) | reduction of the rate of heart attack and sudden cardiac death ([2]; patients with elevated cholesterol levels, five years) [%]
9 | 6 | Cc1ccc(C)c(OCCCC(C)(C)C(=O)Nc2ccc3c(c2)OCO3)c1 [Example 1k, N-1,3-Benzodioxol-5-yl-5-(2,5-dimethylphenoxy)-2,2dimethylpentanamide] | 1.13 | – | –
10 | 8 | Cc1ccc(NC(=O)C(C)(C)CCCOc2cc(C)ccc2C)c(C)c1 [Example 1b, 5-(2,5-Dimethylphenoxy)-N-(2,4-dimethylphenyl)-2,2-dimethylpentanamide] | 1.29 | – | –
11 | 6 | COc1cc(C)ccc1NC(=O)C(C)(C)CCCOc1cc(C)ccc1C [Example 1a, 5-(2,5-dimethylphenoxy)-N-(2-methoxy-4-methylphenyl)-2,2-dimethylpentanamide] | 0.80 | – | –
12 | 7 | Cc1ccc(C)c(OCCCC(C)(C)C(=O)Nc2ccc(F)cc2F)c1 [Example 1g, N-(2,4-Difluorophenyl)-5-(2,5-dimethylphenoxy)-2,2dimethylpentanamide] | 0.36 | – | –
13 | 3 | COc1ccc(NC(=O)C(C)(C)CCCOc2cc(C)ccc2C)cc1OC [Example 1c, N-(3,4-Dimethoxyphenyl)-5-(2,5-dimethylphenoxy)-2,2-dimethylpentanamide] | 1.10 | – | –
14 | 0.8 | Cc1ccc(C)c(OCCCC(C)(C)C(=O)Nc2c(F)cc(F)cc2F)c1 [Example 1h, 5-(2,5-dimethylphenoxy)-2,2-dimethyl-N-(2,4,6-trifluorophenyl)pentanamide] | 0.74 | – | –
